Results as given in patent US20070021495A1, “SULFONAMIDES AS SELECTIVE ESTROGEN RECEPTOR” (priority 2005, published 2007).
“Also recorded” adds a separate entry of the source. Where two headings read alike, the source gives them in different places.

Columns and labels:
ovariectomized mice = conditions: cited from earlier work
ERβ = ERβ (Homo sapiens, UniProt Q92731); experiment: Antagonism of estrogen-induced 2x-pS2-ERE-Luc reporter expression in HEC-1 cells transfected with ERβ; conditions: ligand + E2 at 1 nM, 24 hours, luciferase, pS2 promoter
Method: (§1) Values are expressed as % of E2 activity at 1 nM and are the mean of duplicate determinations.
(§2) The data presented was measured using a reporter gene under the control of the pS2 promoter. […] Human endometrial cancer (HEC-1) cells were maintained in minimum essential medium (MEM) plus phenol red supplemented with 5% calf serum and 5% fetal calf serum. […] The cells were incubated at 37° C. in a 5% CO2-containing incubator for 5 h. The medium was then replaced with fresh improved MEM supplemented with 5% CDCS plus the desired concentrations of ligand. Cells were harvested 24 h later.

[1] = tested on: U2-OS cells stably expressing either ERα or ERβ; experiment: Endogenous gene expression (cystatin D, GREB1 mRNA, quantitative PCR) in U2-OS cells stably expressing ERα or ERβ; conditions: 24 hours, mRNA by quantitative PCR
Method: Expression levels of cystatin D (A and B) or of GREB1 (C and D) mRNA were determined by quantitative PCR methods.
More specifically real-time PCR was carried out on the indicated genes to evaluate mRNA levels of ER alpha or ER beta in U2-OS stably transfected cells. […] One microgram of total RNA from each sample was reverse transcribed in a total volume of 20 μl using 200 U reverse transcriptase, 50 pmol random hexamers, and 1 mM deoxynucleotide triphosphates (New England Biolabs, Beverly, Mass.). The resulting cDNA was then diluted to a total volume of 100 μl. Each real-time PCR consisted of 5 μl of diluted reverse transcription product, 1× SYBR Green PCR Master Mix (Applied Biosystems, Foster City, Calif.), and 50 nM of forward and reverse primers. Reactions were carried out in an ABI Prism 7700 Sequence Detection System (Applied Biosystems) for 40 cycles (95 C for 15 sec, 60 C for 1 min) after an initial 10-min incubation at 95 C. The FC in expression was calculated using the DDCt comparative threshold cycle method with the ribosomal protein 36B4 mRNA as an internal control. Gene expression is normalized to an endogenous reference gene (36B4) and the FC in gene expression is then determined relative to the vehicle-treated control.

ERα = target: T1, ERα (Homo sapiens, UniProt P03372); experiment: Antagonism of estrogen-induced 2x-pS2-ERE-Luc reporter expression in HEC-1 cells transfected with ERα; conditions: ligand + E2 at 1 nM, 24 hours, luciferase, pS2 promoter
T1 sequence (P03372 1-595): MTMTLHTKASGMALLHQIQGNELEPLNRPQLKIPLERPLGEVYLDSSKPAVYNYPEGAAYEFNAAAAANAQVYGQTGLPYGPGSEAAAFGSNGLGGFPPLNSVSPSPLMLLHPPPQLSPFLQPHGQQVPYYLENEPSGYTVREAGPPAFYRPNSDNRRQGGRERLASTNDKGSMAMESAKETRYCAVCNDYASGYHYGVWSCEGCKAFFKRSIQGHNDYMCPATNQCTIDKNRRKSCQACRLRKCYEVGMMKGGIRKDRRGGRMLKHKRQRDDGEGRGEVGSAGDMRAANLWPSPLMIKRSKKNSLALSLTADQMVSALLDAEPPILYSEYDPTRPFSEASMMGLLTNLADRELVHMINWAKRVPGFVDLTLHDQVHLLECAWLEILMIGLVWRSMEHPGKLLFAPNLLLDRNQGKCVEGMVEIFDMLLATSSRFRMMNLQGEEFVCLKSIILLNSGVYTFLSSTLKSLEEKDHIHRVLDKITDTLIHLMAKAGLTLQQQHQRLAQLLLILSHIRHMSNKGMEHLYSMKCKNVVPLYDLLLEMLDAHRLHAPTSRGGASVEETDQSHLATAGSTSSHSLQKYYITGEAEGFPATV
Method: as §1, §2

[2] = target: T2, purified full-length human ERalpha (Homo sapiens, UniProt P03372); experiment: Competitive radiometric binding assay, relative binding affinity (RBA), ERalpha; conditions: normalized to estradiol set at 100%; [3H]estradiol 10 nM tracer, 18-24 h at 0° C
T2 construct: purified full-length human ERalpha and ERbeta receptors purchased from Pan Vera (Madison, Wis.); purchased Pan Vera (Madison, Wis.)
T2 sequence (P03372 1-595): T1 sequence (P03372 1-595)
Method: Incubations were for 18-24 h at 0° C. Hydroxyapatite (BioRad, Hercules, Calif.) was used to absorb the receptor-ligand complexes and free ligand was washed away. […] The values given are the average±range or SD of two to three independent determinations.

[3] = target: T3, purified full-length human ERbeta (Homo sapiens, UniProt Q92731); experiment: Competitive radiometric binding assay, relative binding affinity (RBA), ERbeta; conditions: for ER beta selectivity: binding selectivity ER beta over ER alpha; for Relative binding affinity (RBA) ERβ: normalized to estradiol set at 100%, [3H]estradiol 10 nM tracer, 18-24 h at 0° C; for ERβ/ERα (ratio of RBAs): ratio of RBA ERβ to RBA ERα
T3 construct: purified full-length human ERalpha and ERbeta receptors purchased from Pan Vera (Madison, Wis.); purchased Pan Vera (Madison, Wis.)
Excerpt: The relative binding affinities (RBAs) of potential ER ligands can be measured using purified full length human ERalpha and ERbeta receptors in a competitive radiometric binding assay, according to published procedures (Carlson, K. E.; Choi, I.; Gee, A,; Katzenellenbogen, B. S.; Katzenellenbogen, J. A. Altered ligand binding properties and enhanced stability of a constitutively active estrogen receptor: evidence that an open pocket conformation is required for ligand interaction. Biochemistry 1997, 36, 14897-14905; Katzenellenbogen, J. A.; Johnson, H. J., Jr.; Myers, H. N. Photoaffinity labels for estrogen binding proteins of rat uterus. Biochemistry 1973, 12, 4085-4092) as described in the Examples.
Relative binding affinities reported herein were determined by a competitive radiometric binding assay as previously described (Carlson, K. E.; Choi, I.; Gee, A.; Katzenellenbogen, B. S.; Katzenellenbogen, J. A. Altered ligand binding properties and enhanced stability of a constitutively active estrogen receptor: evidence that an open pocket conformation is required for ligand interaction. Biochemistry 1997, 36, 14897-14905; Katzenellenbogen, J. A.; Johnson, H. J., Jr.; Myers, H. N. Photoaffinity labels for estrogen binding proteins of rat uterus. Biochemistry 1973, 12, 4085-4092.) [3H]estradiol (10 nM) was used as tracer ([6,7-3H]estra-1,3,5,(10)triene-3,17-β-diol, 51-53 Ci/mmol, Amersham Biosciences, Piscataway, N.J.), and purified full-length human ERalpha and ERbeta receptors purchased from Pan Vera (Madison, Wis.). Incubations were for 18-24 h at 0° C. Hydroxyapatite (BioRad, Hercules, Calif.) was used to absorb the receptor-ligand complexes and free ligand was washed away. The binding affinities are expressed as relative binding affinity (RBA) values with the RBA of estradiol set to 100%. The values given are the average±range or SD of two to three independent determinations. […]

Candida albicans = conditions: cited from earlier work

T3 sequence (Q92731 whole entry): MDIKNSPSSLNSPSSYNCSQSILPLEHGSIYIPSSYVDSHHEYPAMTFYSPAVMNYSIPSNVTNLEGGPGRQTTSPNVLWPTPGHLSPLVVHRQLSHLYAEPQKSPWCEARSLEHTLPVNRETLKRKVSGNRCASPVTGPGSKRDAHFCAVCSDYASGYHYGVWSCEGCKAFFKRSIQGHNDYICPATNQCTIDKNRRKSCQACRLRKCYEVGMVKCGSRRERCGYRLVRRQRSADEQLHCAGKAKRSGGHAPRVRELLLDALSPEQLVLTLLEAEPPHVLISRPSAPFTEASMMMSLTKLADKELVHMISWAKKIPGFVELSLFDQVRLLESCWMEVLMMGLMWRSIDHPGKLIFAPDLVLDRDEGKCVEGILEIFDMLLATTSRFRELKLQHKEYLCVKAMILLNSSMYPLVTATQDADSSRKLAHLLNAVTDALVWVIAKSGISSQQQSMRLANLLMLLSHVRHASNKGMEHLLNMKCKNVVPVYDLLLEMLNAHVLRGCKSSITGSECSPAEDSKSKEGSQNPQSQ
Sequence of ERβ (Q92731 whole entry, species assumed): as the sequence (Q92731 whole entry) above

| Relative binding affinity (RBA) ERα [2] | Relative binding affinity (RBA) ERβ [3] | ERβ/ERα (ratio of RBAs) [3] | Compound | other results |
| --- | --- | --- | --- | --- |
|  |  |  | COc1ccc(S(=O)(=O)N(c2ccccc2)c2ccccc2)cc1 [compound VIII] | percentage of animals which responded (ovariectomized mice; dose 250 micrograms): 60% |
| 0.026% | 2.56% | 98 | CCCN(c1ccc(O)cc1)S(=O)(=O)c1ccc(O)cc1 [Compound 20c, 4-Hydroxy-N-(4-hydroxy-phenyl)-N-propyl-benzenesulfonamide] | Antagonism on estrogen-induced gene expression through ERβ (ERβ; listed as FS-2): do not act as antagonists; also recorded: lack of antagonism; Potency in endogenous gene regulation compared to the dose response of estradiol [1]: preferential potency through ERbeta; Regulation of endogenous genes (cystatin D and GREB1) [1]: preferential regulation through ERbeta; Antagonism on estrogen-induced gene expression through ERα (ERα; listed as FS-2): do not act as antagonists; also recorded: lack of antagonism; ER beta selectivity [3]: 98 fold |
| 0.020% | 0.17% | 8.5 | O=S(=O)(c1ccc(O)cc1)N(CC(F)(F)F)c1ccc(O)cc1 [Compound 20k, 4-Hydroxy-N-(4-hydroxy-phenyl)-N-(2,2,2-trifluoro-ethyl)-benzenesulfonamide] |  |
| 0.023% | 1.15% | 50 | CCCCN(c1ccc(O)cc1)S(=O)(=O)c1ccc(O)cc1 [Compound 20d, N-Butyl-4-hydroxy-N-(4-hydroxy-phenyl)-benzenesulfonamide] |  |
| 0.013% | 0.14% | 11 | CC(C)CN(c1ccc(O)cc1)S(=O)(=O)c1ccc(O)cc1 [Compound 20e, N-Isobutyl-4-hydroxy-N-(4-hydroxy-phenyl)-benzenesulfonamide] |  |
| 0.011% | 0.254% | 23 | CCCN(c1ccc(O)c(F)c1)S(=O)(=O)c1ccc(O)cc1 [Compound 24a, N-(3-Fluoro-4-hydroxy-phenyl)-4-hydroxy-N-propyl-benzenesulfonamide] |  |
| 0.018% | 0.11% | 6.1 | CCC(CC)N(c1ccc(O)cc1)S(=O)(=O)c1ccc(O)cc1 [Compound 20j, N-(1-Ethyl-propyl)-4-hydroxy-N-(4-hydroxy-phenyl)-benzenesulfonamide] |  |
|  |  |  | COc1ccc(NS(=O)(=O)c2ccc(OC)cc2)cc1 [compound II, p-methoxybenzenesulfon-p-anisidide] | Activity against Candida albicans (Candida albicans): some activity; percentage of animals which responded (ovariectomized mice; dose 50 micrograms): 100% |
| 0.003% | 0.023% | 7.7 | O=S(=O)(c1ccc(O)cc1)N(CCC(F)(F)F)c1ccc(O)c(Cl)c1 [Compound 28b, N-(3-Chloro-4-hydroxy-phenyl)-4-hydroxy-N-(3,3,3-trifluoro-propyl)-benzenesulfonamide] |  |
| 0.007% | 0.28% | 40 | CCN(c1ccc(O)cc1)S(=O)(=O)c1ccc(O)cc1 [Compound 20b, N-Ethyl-4-hydroxy-N-(4-hydroxy-phenyl)-benzenesulfonamide] |  |
| 0.009% | 0.178% | 20 | O=S(=O)(c1ccc(O)cc1)N(CCC(F)(F)F)c1ccc(O)c(F)c1 [Compound 28a, N-(3-Fluoro-4-hydroxy-phenyl)-4-hydroxy-N-(3,3,3-trifluoro-propyl)-benzenesulfonamide] |  |
| 0.047% | 0.60% | 13 | CCCCCN(c1ccc(O)cc1)S(=O)(=O)c1ccc(O)cc1 [Compound 20f, 4-Hydroxy-N-(4-hydroxy-phenyl)-N-pentyl-benzenesulfonamide] |  |
| 0.006% | 0.97% | 162 | CCC(C)N(c1ccc(O)cc1)S(=O)(=O)c1ccc(O)cc1 (racemic) [Compound 20h (Racemic), N-sec-Butyl-4-hydroxy-N-(4-hydroxy-phenyl)-benzenesulfonamide] | ER beta selectivity [3]: 162 fold |
| 0.013% | 1.3% | 100 | CCCC(C)N(c1ccc(O)cc1)S(=O)(=O)c1ccc(O)cc1 (centres unmarked) [Compound 20i, 4-Hydroxy-N-(4-hydroxy-phenyl)-N-(1-methyl-butyl)-benzenesulfonamide] |  |
| 0.009% | 0.058% | 6.4 | CN(c1ccc(O)cc1)S(=O)(=O)c1ccc(O)cc1 [Compound 20a, 4-Hydroxy-N-(4-hydroxy-phenyl)-N-methyl-benzenesulfonamide] |  |
| 0.012% | 0.22% | 18 | CC(C)N(c1ccc(O)cc1)S(=O)(=O)c1ccc(O)cc1 [Compound 20g, N-Isopropyl-4-hydroxy-N-(4-hydroxy-phenyl)-benzenesulfonamide] |  |
| 0.005% | 0.038% | 7.6 | CCCN(c1ccc(O)c(Cl)c1)S(=O)(=O)c1ccc(O)cc1 [Compound 24b, N-(3-Chloro-4-hydroxy-phenyl)-4-hydroxy-N-propyl-benzenesulfonamide] |  |
| 0.006% | 1.27% | 212 | O=S(=O)(c1ccc(O)cc1)N(CCC(F)(F)F)c1ccc(O)cc1 [Compound 20l, 4-Hydroxy-N-(4-hydroxy-phenyl)-N-(3,3,3-trifluoro-propyl)benzenesulfonamide] | Antagonism on estrogen-induced gene expression through ERβ (ERβ; listed as FS-5): do not act as antagonists; also recorded: lack of antagonism; Potency in endogenous gene regulation compared to the dose response of estradiol [1]: preferential potency through ERbeta; Regulation of endogenous genes (cystatin D and GREB1) [1]: preferential regulation through ERbeta; Antagonism on estrogen-induced gene expression through ERα (ERα; listed as FS-5): do not act as antagonists; also recorded: lack of antagonism; ER beta selectivity [3]: 212 fold |
